Assay: Solubility of ionic liquid in 100 g of ink or treating solution
Format: physicochemical
Conditions: about 23° C., left 1 day
Description: Solubility (the amount of the ionic liquid that can be solved in 100 g of the ink) is defined by mixing the ink and the ionic liquid in predetermined amounts and leaving the resultant mixture for 1 day while keeping it at a temperature of about 23° C. The amount of ionic liquid that has separated from the ink 1 day after mixing is determined as the amount of ionic liquid exceeding the solubility of the ionic liquid in the ink.

Row | SMILES | Solubility (g) of ionic liquid in 100 g of ink (ink A) | Solubility (g) ionic liquid in 100 g of treating solution (treating solution A) | Solubility (g) of ionic liquid in 100 g of ink (ink B)
1 | CC[N+](C)(CC)CCOC.O=S(=O)([N-]S(=O)(=O)C(F)(F)F)C(F)(F)F [Example 1-2, N-diethyl-3-methyl-N-(2-methoxyethyl)ammonium bis(trifluoromethanesulfonyl)imide] | 0.1 g or less | 0.1 g or less | –
2 | CC[N+](C)(CC)CCOC.F[B-](F)(F)F [Example 1-4, N-diethyl-3-methyl-N-(2-methoxyethyl)tetrafluoroborate] | – | – | less than 5 g

Reference: patent US20060192819A1, “Recording apparatus” (Fuji Xerox Co., Ltd., priority 2005, published 2006)
